Measurements as given in patent US10035791B2, “Bicyclic compound and pharmaceutical composition thereof for treating stroke and use thereof” (China Medical University, priority 2016, dated 2018).

Assays:
[1] = system: primary cortical cultures (PCCs); test: Lactate dehydrogenase (LDH) release rate analysis, H2O2-treated PCCs; assay type: cell-based, C57BL/6 mice; conditions: for LDH release rate of the PCCs treated with H2O2: compound 100 μM, 10^-4 mol/L H2O2, 24 hours, FIG. 1F; for concentration at which the LDH release rate of the PCCs is reduced most: tested 0.1, 1, 10 and 100 μM, FIG. 1G
Procedure: H2O2 can cause an oxidative damage to cells and a destruction of the cell membrane, and consequently the LDH is released into medium. For that reason, the lower rate of the LDH released into the culture medium is represented the fewer damaged cells and better cell protection effect of sample.
Test cells are primary cortical cultures (PCCs) in this example. The PCCs are prepared from cerebral cortexes of gestation day 17 embryos from C57BL/6 mice as described previously (Cell Death Differ 2008; 15: 143-151). The PCCs are maintained under serum-free conditions in neurobasal medium (Invitrogen), supplemented with B-27 supplement (2%; invitrogen), glutamine (0.5 mM; Sigma Aldrich), glutamate ([…]; Sigma Aldrich), penicillin (100 U/ml) and streptomycin ([…]; Invitrogen). At 4 days in vitro, half of the medium is removed and replaced with fresh medium without glutamate. The cultures are maintained in a humidified incubator at 37° C. with 5% CO2. At 7 days in vitro, the PCCs are used for experimentation.
The PCCs are seeded in a 24-well plate and are allowed to stand for 20 minutes. […] The PCCs are maintained at 37° C. in a humidified atmosphere of 5% CO2 for 24 hours. After incubation, the culture medium is collected and washed twice with phosphate buffered saline (PBS), and then are analyzed the LDH activity in the culture medium by using LDH Cytotoxicity Detection Kit (TaKaRa Bio Laboratories, Japan) to calculate the percentage cytotoxicity, which is represented the situation of cells damage, of the PCCs. The lower percentage cytotoxicity presents the lower LDH activity detected and less severe of cells damages, which indicates the better cell protection effect of the sample. The LDH activity is measured by a colorimetry. After a reaction between enzyme and particular substrate, an absorbance of the reaction solution and the LDH activity is linearly correlated. The LDH activity (U/10^−3 L) is calculated by a reduced optical density slope at a wavelength of 340 nm within three minutes. A lactate dehydrogenase activity unit is defined as a catalytic consumption of […] NADH per minute.

[2] = system: ischemic rats; test: Volume of the infarction after cerebral ischemia, magnetic resonance imaging (MRI); assay type: in vivo, Sprague-Dawley (SD) rats; conditions: 30 mg/kg, 7 days after the injection, FIGS. 18A, 18B
Description: The ischemic rats are induced by an ischemia-reperfusion model to simulate transient focal cerebral ischemia in rats. Test animals are male Sprague-Dawley (SD) rats weighing 250-300 g. The rats are anesthetized with chloral hydrate (0.4 g/kg IP) and subjected to cerebral ischemia. The ischemia-reperfusion model is induced by ligations of bilateral common carotid arteries (CCAs) and a right middle cerebral artery (MCA). The bilateral CCAs are clamped with non-traumatic arterial clips, and the right MCA is ligated with an 10-0 nylon suture. After 90 minutes ischemia, the suture on the MCA and the arterial clips on CCAs are removed to allow reperfusion. Core body temperature is monitored with a thermistor probe (Hewlett-Packard Model 21090A probe, Hewlett-Packard Company, Andover, Mass.), and maintained at 37° C. with a heating pad during anesthesia. After recovery from anesthesia, rat body temperature is maintained at 37° C. with a heat lamp.
Further, the ischemic rats are assigned into 5 groups, 4 test groups and 1 control group. The ischemic rats of the test groups are injected with 1 mg/kg of the Compound 1, 30 mg/kg of the genipin, 1 mg/kg of the Compound 1 and 100 mg/kg of 2-ME2, and 1 mg/kg of the Compound 1 and the LV-Bmi-1-sh, respectively. The ischemic rats of the control group are injected with the vehicle. At 7 days after the injection, the ischemic rats of the different groups are anesthetized, and the volume of the infarction thereof is assessed by a magnetic resonance imaging (MRI).

| LDH release rate of the PCCs treated with H2O2 [1] | Structure (SMILES) | concentration at which the LDH release rate of the PCCs is reduced most [1] | area of the largest infarction (MRI) [2] | volume of the infarction (MRI) [2] |
| --- | --- | --- | --- | --- |
| lower LDH release rate | COC(=O)C1=CO[C@@H](O)[C@@H]2C(COC(=O)[C@H](Cc3ccccc3)NC(=O)OC(C)(C)C)=CC[C@H]12 [Compound 3] | 100 µM |  |  |
| lower LDH release rate | COC(=O)C1=CO[C@@H](OC(=O)[C@@H](N)Cc2ccccc2)[C@@H]2C(COC(=O)[C@@H](N)Cc3ccccc3)=CC[C@H]12 [Compound 15] | 100 µM |  |  |
|  | COC(=O)C1=CO[C@@H](OC(=O)[C@@H](N)Cc2ccccc2)[C@@H]2C(CO)=CC[C@H]12 [Compound 16] | 100 µM |  |  |
|  | COC(=O)C1=CO[C@@H](O)[C@@H]2C(CO)=CC[C@H]12 [genipin, reference compound] |  | reduced | reduced |
